Literature values in US9782362B2, “Uses of compositions containing a roasted extract and xanthohumol” (TA-XAN AG, priority 2012, dated 2017).
Where two headings read alike, the source gives them in different places.

Columns and labels:
[1] = tested on: Cells in culture or rat liver; conditions: depending on doses ranging between 0.01 to 10 μM
[2] = up to 100 mg/kg/day per os, 4 weeks
[3] = 4 weeks, female C3H-mice
[4] = direct chemical interaction
bacterial culture = conditions: depending on doses ranging between 0.01 to 10 μM
[5] = tested on: human Kaposi's sarcoma (KS-IMM) cells; conditions: approx. 1.2 mg/kg for 23 days
[6] = 100 mg/kg/day in drinking water for four weeks, then mated
[7] = tested on: Diacylglycerol acetyltransferase (DGAT); conditions: in vitro
[8] = tested on: Human breast tumor cells (MX-1 cells); conditions: daily subcutaneous 1000 mg/kg
Estrogen = conditions: oral three×100 mg/kg over three days
inflammation = conditions: oral 4-6 mg/kg per day for 60 days in drinking water
[9] = tested on: bone-resorbing cells (osteoclasts); conditions: in vitro
[10] = rat
[11] = mice
[12] = tested on: Human breast tumor cells (MXF7 cells); conditions: daily dose of 4-6 mg/kg in the drinking water; not validated statistically at the 95% level
apoptosis = conditions: 4-6 mg/kg per day for 60 days in the drinking water
angiogenesis = conditions: approx. 1 mg/kg per day three days per os; 4-6 mg/kg per day 60 days drinking water; or 1000 mg/kg subcutaneously

COc1cc(O)c(CC=C(C)C)c(O)c1C(=O)/C=C/c1ccc(O)cc1 [xanthohumol]
inhibition of DNA damage [1]: up to 100% | toxicity [2]: no indication of toxicity | development of weight, appearance of organs, haematologically clinical parameters, liver enzyme values, glucose metabolism ([3]; approximately 28 mg/kg/day in drinking water): uninfluenced | impact on health ([3]; drinking water 5×10^−4M ad libitum, approximately 28 mg/kg/day): no unfavorable impact | interception of DPPH radical [4]: not able to intercept | inhibition of mutagenic damage (bacterial culture): up to 100% | growth of the tumor inhibited [5]: 68% | influence on fertility or lactation [6]: Neither the pre-treatment of the female animals nor of the males had any influence | DGAT inhibition [7]: inhibition of this enzyme | growth of the tumor inhibited ([8]; in one week): 46% | growth of the tumor inhibited ([8]; in two weeks): 83% | toxic effects (daily for 4 weeks: 100 mg/kg drinking water, 500 mg/kg in feed, 1000 mg/kg pharyngeal tube): no toxic effects whatsoever could be determined | weight of the liver (high-dose groups (500 mg/kg/day and 1000 mg/kg/day), due to breakdown of glycogen): reduction in the weight of the liver | anti-estrogen action (Estrogen): possible to detect anti-estrogen action | effect on inflammation (inflammation): inhibitive effect on inflammation was also established in vivo | inhibition of the resorption of bone ([9]; 1 μM): 35% | inhibition of the resorption of bone ([9]; 10 μM): 94% | absorption following oral application [10]: poorly absorbed | state in the excrement ([10]; oral): largely unchanged | plasma glucose level [11]: reduction | triglycerides [11]: reduction | growth of the tumor inhibited [12]: 35% | induction of apoptosis (apoptosis): could be detected | anti-angiogenetic action (angiogenesis): anti-angiogenetic action
